Experimental findings from patent US20240018145A1, “[…]-DEPENDENT EN[…] TREATING OR […]” (priority 2020, published 2024) are described below.

The subject of the test is FLU A (PR/8/34). Kind of test: Flu A Neuraminidase Antiviral Assay. It counts as cell-based.

Read-outs that look alike come from different tables or passages of the source.

A word on the EC50: it is the concentration giving half of the maximal effect. A higher EC50 goes with a need for much substance. `CN1C(=O)c2c(O)c(=O)ccn2N2C(c3cccc(F)c3)C(CC(F)(F)F)CCC12` (single isomer, unassigned) [Compound 121B, 1-(3-fluorophenyl)-7-hydroxy-5-methyl-2-(2,2,2-trifluoroethyl)-1,2,3,4,4a,5-hexahydrodipyrido[1,2-b:2′,1′-f][1,2,4]triazine-6,8-dione]: the EC50 stood at 5.8 nM.

In turn, `CN1C(=O)c2c(O)c(=O)ccn2N2C(c3ccccc3F)C(CC(F)(F)F)CCC12` (single isomer, unassigned) [Compound 127A, 1-(2-fluorophenyl)-7-hydroxy-5-methyl-2-(2,2,2-trifluoroethyl)-1,2,3,4,4a,5-hexahydrodipyrido[1,2-b:2′,1′-f][1,2,4]triazine-6,8-dione] gave an EC50 of 3500 nM.

As to `CCCC1CCC2N(C)C(=O)c3c(O)c(=O)ccn3N2C1(C)c1ccccc1` (single isomer, unassigned) [Compound 33A, 7-hydroxy-1,5-dimethyl-1-phenyl-2-propyl-1,2,3,4,4a,5-hexahydrodipyrido[1,2-b:2′,1′-f][1,2,4]triazine-6,8-dione], the EC50 was 49.5 nM.

Compound `CCN1C(=O)c2c(O)c(=O)ccn2N2C(c3ccccc3)C(C3(C(F)(F)F)CC3)CCC12` (single isomer, unassigned) [Compound 104A, 5-ethyl-7-hydroxy-1-phenyl-2-(1-(trifluoromethyl)cyclopropyl)-1,2,3,4,4a,5-hexahydrodipyrido[1,2-b:2′,1′-f][1,2,4]triazine-6,8-dione] yielded an EC50 of 8 nM.

Compound `Cc1cc(=O)c(O)c2n1N1C(c3ccccc3)C(CC(F)(F)F)CCC1N(C)C2=O` (single isomer, unassigned) [Compound 132A, 7-hydroxy-5,10-dimethyl-1-phenyl-2-(2,2,2-trifluoroethyl)-1,2,3,4,4a,5-hexahydrodipyrido[1,2-b:2′,1′-f][1,2,4]triazine-6,8-dione] came in with an EC50 greater than 810 nM.

For `CN1C(=O)c2c(O)c(=O)ccn2N2C(c3ccccc3)C(CC(F)F)CCC12` (single isomer, unassigned) [Compound 129A, 2-(2,2-difluoroethyl)-7-hydroxy-5-methyl-1-phenyl-1,2,3,4,4a,5-hexahydrodipyrido[1,2-b:2′,1′-f][1,2,4]triazine-6,8-dione], the midpoint of the response, the EC50, lay at 2.3 nM.

The compound `Cc1cccc(F)c1C1C(CC(F)(F)F)CCC2N(C)C(=O)c3c(O)c(=O)ccn3N12` (single isomer, unassigned) [Compound 77C, 1-(2-fluoro-6-methylphenyl)-7-hydroxy-5-methyl-2-(2,2,2-trifluoroethyl)-1,2,3,4,4a,5-hexahydrodipyrido[1,2-b:2′,1′-f][1,2,4]triazine-6,8-dione] returned an EC50 greater than 810 nM.

Take `CN1C(=O)c2c(O)c(=O)ccn2N2[C@H](c3ccccc3)[C@@H](OCCCCC#N)CC[C@@H]12` [Compound 154, 5-(((1R,2S,4aS)-7-hydroxy-5-methyl-6,8-dioxo-1-phenyl-1,2,3,4,4a,5,6,8-octahydrodipyrido[1,2-b:2′,1′-f][1,2,4]triazin-2-yl)oxy)pentanenitrile]: the EC50 (MDCK, 48 h) is greater than 810 nM.

On to `CN1C(=O)c2c(O)c(=O)ccn2N2C(c3ccccc3)C(CCC3CC3)CCC12` (single isomer, unassigned) [Compound 115C, 2-(2-cyclopropylethyl)-7-hydroxy-5-methyl-1-phenyl-1,2,3,4,4a,5-hexahydrodipyrido[1,2-b:2′,1′-f][1,2,4]triazine-6,8-dione], for which the half-maximal effective concentration (EC50) worked out at 2.7 nM.

`Cc1ccccc1C1C(CC2CC2(F)F)CCC2N(C)C(=O)c3c(O)c(=O)ccn3N12` (single isomer, unassigned) [Compound 88A]: the EC50 was greater than 810 nM.

`CN1C(=O)c2c(O)c(=O)ccn2N2C1CCCC2(C)c1ccccc1` (single isomer, unassigned) [Compound 18B, 7-hydroxy-1,5-dimethyl-1-phenyl-1,2,3,4,4a,5-hexahydrodipyrido[1,2-b:2′,1′-f][1,2,4]triazine-6,8-dione] showed an EC50 of 356 nM.
